The text below walks through data of ChEMBL document CHEMBL3507680, “University of Dundee, Gates Library screen for HepG2 cell viability”.

The nature of this data set: Human HepG2 cell viability assay in 384 well format. The data set is classed as toxicity, cell-based. The conditions noted are these: HepG2 cells, read-out: Inhibition. Details: dose 125 nL, time 70.5 hour; concentration not given beside the values.

`Oc1cccc(CN2C[C@H]3CC[C@@H]2CN(Cc2cccnc2)C3)c1`: the cytotoxicity at 70.5 h was 3.01%.

As to `CCN(Cc1ccc(C(C)=O)cc1)CC1CCOCC1`, the cytotoxicity at 70.5 h was 20.6%.

Regarding `Cc1nc(N2CCCC2)nc(N2CCC(O)(C(=O)O)CC2)c1C`, the cytotoxicity at 70.5 h amounted to 23.8%.

Take `CC(C)=CCN1CCC2(CC1)CC(=O)N(Cc1cc(F)cc(F)c1)C2`: the cytotoxicity at 70.5 h turned out to be 2.51%.

On to `Cc1cc(N2CCCC(O)(CN(C)C)C2)c2cc3c(cc2n1)OCO3` (stereo not drawn), for which the cytotoxicity at 70.5 h was 0.76%.

On to `CC(=O)N[C@@H]1CN(Cc2ccccc2C(=O)O)C[C@H]1C(C)C`, for which the cytotoxicity at 70.5 h came to 0.633%.

Consider `Cc1nc(O)cc(C2CCN(C(=O)c3ccsc3)CC2)n1`, for which the cytotoxicity at 70.5 h was -5.48%.

Take `CCc1ncc(CNCc2cccnc2N(C)C)cn1`: the cytotoxicity at 70.5 h was -12.1%.

In the case of `CC[C@@H](c1ccccc1)n1c(C2CC2)n[nH]c1=O`, the cytotoxicity at 70.5 h was -13%.

Turning to `CCN(CC1CCOCC1)C(=O)CCNC(=O)c1ccccc1F`, the cytotoxicity at 70.5 h is -23.5%.

`CN1CCCN(C(=O)c2cnc(C(C)(C)C)nc2O)CC1`: the cytotoxicity at 70.5 h is 0.369%.

For the compound `CC(C1CCN(Cc2c(Cl)cncc2Cl)CC1)N1CCOCC1` (stereo not drawn), the cytotoxicity at 70.5 h is -5.73%.

As to `CCCc1cc(NCc2noc(COC)n2)n2nccc2n1`, the cytotoxicity at 70.5 h was -4.21%.

Take `Cc1cc(N2CCC3(CCCN(CCO)C3=O)C2)nc2cc(Cl)ccc12` (stereo not drawn): the cytotoxicity at 70.5 h was -19.8%.

With `O=C(c1coc(COc2ccccc2F)n1)N1CCCO1`, the cytotoxicity at 70.5 h is -6.81%.

In the case of `Cc1ocnc1C(=O)N1CC[C@@]2(O)CCN(C(=O)N3CCCC3)C[C@H]2C1`, the cytotoxicity at 70.5 h is -4.39%.

In the case of `CC(C)[C@@H]1CN(S(=O)(=O)c2cccc(C(=O)O)c2)C[C@H]1N(C)C`, the cytotoxicity at 70.5 h was determined as 17.4%.

`CN1CC2(CCN(C(=O)c3ccc4nccnc4c3)CC2)CC1=O`: the cytotoxicity at 70.5 h was -4.39%.

Regarding `Fc1ccc(OC2CCN(CCn3cncn3)CC2)cc1`, the cytotoxicity at 70.5 h was -9.54%.

Consider `CN(C)c1nc2c(c(=O)[nH]1)CCN(C(=O)c1c[nH]c(=O)c(Cl)c1)C2`, for which the cytotoxicity at 70.5 h is -0.451%.

With `CCn1c(C)nnc1SCCNC(=O)CC1CCc2ccccc21` (stereo not drawn), the cytotoxicity at 70.5 h was -18.5%.

As for `c1ccc2c(CC3CN(Cc4nccs4)CCO3)cccc2c1` (stereo not drawn), the cytotoxicity at 70.5 h was -0.398%.

On to `O=C1CC(c2ccc3ccccc3n2)c2c(n[nH]c2C2CCC2)N1` (stereo not drawn), for which the cytotoxicity at 70.5 h was 19.5%.

`CCCc1cc(N2CCC(NC3CCS(=O)(=O)C3)CC2)nc(C)n1` (stereo not drawn): the cytotoxicity at 70.5 h is -4.65%.

On to `c1cncc(CN(CCCn2ccnc2)CC2CCOC2)c1` (stereo not drawn), for which the cytotoxicity at 70.5 h is -1.27%.

For the compound `CC(C)n1cnnc1CN(C)C(=O)c1cc(COc2ccccc2)[nH]n1`, the cytotoxicity at 70.5 h was 2.63%.

Take `CCn1nc(C)c(NC(=O)CN2CCN(C(C)=O)CC2)c1C`: the cytotoxicity at 70.5 h is -10.9%.

As for `COCc1ncn(Cc2nc(-c3ccco3)oc2C)n1`, the cytotoxicity at 70.5 h came to 6.06%.

Take `CCCN1CC2(CCN(C)CC2)CC1C(=O)NCCn1ccc(C)n1` (stereo not drawn): the cytotoxicity at 70.5 h was -1.37%.

Regarding `Nc1nc(Cn2ccnc2-c2cc(CN3CCCC3)cs2)cs1`, the cytotoxicity at 70.5 h was determined as 3.17%.

In the case of `CCN(CC)S(=O)(=O)c1ccc(NC(=O)C(C)(C)C)cc1`, the cytotoxicity at 70.5 h was -4.91%.

On to `CCc1ccc2nc(NCCOCCO)cc(C)c2c1`, for which the cytotoxicity at 70.5 h was -2.24%.

As for `CCN(CC)C(CNCc1ccc(OC)c(F)c1)c1ccco1` (stereo not drawn), the cytotoxicity at 70.5 h stood at 54.9%.

For the compound `CCN(Cc1cnc(NCc2ccccc2)nc1)C1CCS(=O)(=O)C1` (stereo not drawn), the cytotoxicity at 70.5 h was -7.52%.

`COc1ccc([C@@H]2CN(C(=O)CCc3cc(Cl)no3)C[C@H]2N(C)C)cc1`: the cytotoxicity at 70.5 h was determined as 4%.

For `CCC(C)Sc1ncc(-c2c(C#N)c(N)nc3c2COCC3)cn1` (stereo not drawn), the cytotoxicity at 70.5 h stood at 6.03%.

Turning to `COCc1noc(CN2CCC3(CC2)[C@H](O)C[C@@H]3OC)n1`, the cytotoxicity at 70.5 h is -5.38%.

For the compound `CN(Cc1cc(-c2ccncc2)no1)Cc1nccn1C`, the cytotoxicity at 70.5 h turned out to be 10.3%.

For the compound `CN1CCN(C2CCOCC2)CC12CCC(=O)N(CC1CC1)CC2` (stereo not drawn), the cytotoxicity at 70.5 h was -6.33%.

On to `O=C(c1ccon1)N1CCCCC1c1nc2cc(F)ccc2[nH]1` (stereo not drawn), for which the cytotoxicity at 70.5 h was -5.01%.

Regarding `Cc1nn(CCO)cc1CN1CCC(C(C)N2CCCC2)CC1` (stereo not drawn), the cytotoxicity at 70.5 h is -3.99%.

With `CN1CC2(CCN(C(=O)c3ccc4c(=O)n(C)cnc4c3)C2)OC1=O` (stereo not drawn), the cytotoxicity at 70.5 h worked out at 8.11%.

In the case of `Cc1ccc(OC2CCN(CCn3cncn3)CC2)cc1`, the cytotoxicity at 70.5 h is -10.7%.

Take `O=C1CN(CC[C@@H](O)c2ccccc2)CCN1c1ccccc1Cl`: the cytotoxicity at 70.5 h is -7.1%.

On to `COCCN(Cc1cnn(C)c1)C(=O)C1CCC(=O)N(C2CCCC2)C1` (stereo not drawn), for which the cytotoxicity at 70.5 h is -15%.

Consider `Cc1nn(C)c(C)c1C(C(=O)O)N1CC=C(c2ccccc2)CC1` (stereo not drawn), for which the cytotoxicity at 70.5 h came to 10.9%.

Take `COCCN1CCN(c2ncnc3nc(C)cc(C)c23)CC1`: the cytotoxicity at 70.5 h is -7.61%.

Turning to `CSc1ccc(CN(C(=O)c2cc(C)[nH]c(=O)c2)C2CC2)cc1`, the cytotoxicity at 70.5 h was 0.291%.

Turning to `CCSCCNc1nc(-c2ccccn2)nc2c1c(C)nn2C`, the cytotoxicity at 70.5 h stood at 2.98%.

For the compound `CCOC(=O)CC(NC(=O)c1cn(Cc2ccccc2F)nn1)C(C)C` (stereo not drawn), the cytotoxicity at 70.5 h is -9.35%.

Turning to `CC(=O)c1cn(CC(=O)N2CCCC(O)(CO)C2)c2ccccc12` (stereo not drawn), the cytotoxicity at 70.5 h turned out to be 28%.

`COCCN(C/C=C/c1ccccc1)Cc1nccs1`: the cytotoxicity at 70.5 h is 2.82%.

Regarding `Cc1ccc(C(=O)N2CCC3(CCC(=O)N(CC(N)=O)C3)CC2)cc1`, the cytotoxicity at 70.5 h is -8.05%.

Take `Cc1cnc2c(C(=O)N(C)Cc3cc(C4CC4)[nH]n3)cnn2c1`: the cytotoxicity at 70.5 h amounted to 31.8%.

`COc1ccc(-c2ccc(C(=O)N3CCOCC3CC(=O)O)o2)cc1` (stereo not drawn): the cytotoxicity at 70.5 h was -3.78%.

In the case of `CCCN1CCN(Cc2cc(Cl)cc(Cl)c2)[C@H]2CS(=O)(=O)C[C@H]21`, the cytotoxicity at 70.5 h is 10.3%.

`OC1(CN2CCCCC2)CCN(c2nccc(C(F)(F)F)n2)C1` (stereo not drawn): the cytotoxicity at 70.5 h turned out to be 18.4%.

For `CS(=O)(=O)N1C[C@@H]2CC[C@H](C1)N(C(=O)CCn1cnc3ccccc31)C2`, the cytotoxicity at 70.5 h was found to be 18.3%.

Take `Cc1cccc2[nH]c(C3CCN(C(=O)c4cccnn4)CC3)nc12`: the cytotoxicity at 70.5 h was determined as 16.6%.

Consider `Cc1ccc(CN2CCN(C3CCSCC3)CC2CCO)o1` (stereo not drawn), for which the cytotoxicity at 70.5 h is -0.539%.

As to `Cc1cc(N2CCC(C(=O)O)(n3ccc(C(C)(C)C)n3)CC2)nc(N)n1`, the cytotoxicity at 70.5 h is 0.151%.

For the compound `CNc1ccnc(NCC(=O)Nc2cc(C)ccc2OC)n1`, the cytotoxicity at 70.5 h is -5.67%.

As to `COc1ccccc1OCCCc1cc(C#N)ccn1`, the cytotoxicity at 70.5 h came to 6.71%.

As for `O=C(O)[C@]12CCCN(Cc3nccs3)[C@@H]1CCN(c1cnccn1)C2`, the cytotoxicity at 70.5 h is -5.49%.

`CSc1nccc(N2CCC(NCc3nc(C)cc(C)n3)CC2)n1`: the cytotoxicity at 70.5 h came out at 1.01%.

For the compound `Cc1nc(CCCN2CCOCC2)n(Cc2ccc(F)cc2)n1`, the cytotoxicity at 70.5 h was -12.5%.

Regarding `Cn1cc(Cl)c(CN2CCn3nc(C(=O)Nc4ccccc4)cc3C2)n1`, the cytotoxicity at 70.5 h worked out at 32.8%.

As for `CCOCCC(=O)N1CCc2cccc(S(=O)(=O)N3CCOCC3)c2C1`, the cytotoxicity at 70.5 h is -9.19%.

With `COCc1cc(CN(C)C(=O)c2c[nH]nc2-c2cccc(F)c2)n[nH]1`, the cytotoxicity at 70.5 h worked out at 19.4%.

Turning to `C[C@@H]1CN(S(=O)(=O)N2CCCC2)C[C@@]1(O)C1CC1`, the cytotoxicity at 70.5 h is -4.68%.

Take `Cc1cc(C(=O)N2C[C@@H]3[C@@H](CN(C)CCCn4cccn4)[C@@H]3C2)c(C)o1`: the cytotoxicity at 70.5 h was -0.851%.

Take `c1ccc(C(CC2CN(Cc3c[nH]cn3)CCO2)c2ccccc2)cc1` (stereo not drawn): the cytotoxicity at 70.5 h was -5.4%.

Regarding `Cn1ncc2c(NCCCOc3cccnc3)nc(C3CCCC3)nc21`, the cytotoxicity at 70.5 h stood at 16.2%.

Take `CC[C@H]1CN(C(=O)CCn2c(C)cccc2=O)CC[C@@]1(C)O`: the cytotoxicity at 70.5 h is -4.82%.

With `CCc1nnsc1C(=O)N1CCCC(COc2ccc(F)cc2)C1` (stereo not drawn), the cytotoxicity at 70.5 h was -4.43%.

Take `CCNC(=O)[C@@H]1CCCN1C(=O)c1cccc(CCC(C)(C)O)c1`: the cytotoxicity at 70.5 h is -7.73%.

For `COCCN(Cc1cnn(C)c1)CC1CCN(C(C)C)CC1`, the cytotoxicity at 70.5 h is -1.39%.

As for `CN(CCc1ccccn1)[C@@H]1CCN(c2cc(C(N)=O)ccn2)C[C@H]1O`, the cytotoxicity at 70.5 h is -3.34%.

For the compound `COc1ccc(-n2ncc(C(C)NC3CCOCC3)c2C)cc1` (stereo not drawn), the cytotoxicity at 70.5 h is -1.36%.

Consider `Cc1nc(NCCC23CCCN2CCC3)cc(C2CCNCC2)n1`, for which the cytotoxicity at 70.5 h was -7.1%.

In the case of `CCn1nc(C)c(CCNC(=O)c2coc(CN3CCOCC3)c2)c1C`, the cytotoxicity at 70.5 h turned out to be 0.862%.

Regarding `OC(CNc1ncnc2c1CCNCC2)C(F)(F)F` (stereo not drawn), the cytotoxicity at 70.5 h was -4.22%.

Turning to `Cc1ccccc1N1CCCN(C(=O)c2cn(C)c3ccccc23)CC1`, the cytotoxicity at 70.5 h is -8.98%.

Consider `CCc1cc(NCCCOC2CCCC2)ncn1`, for which the cytotoxicity at 70.5 h was -10.7%.

For the compound `COc1cc2c(cc1CN1CCCCC1CN1CCOCC1)CCC2` (stereo not drawn), the cytotoxicity at 70.5 h was found to be 1.06%.

For `COCCN(C)CC(=O)N1CCCC2(CCC(=O)N(CC3CC3)C2)C1` (stereo not drawn), the cytotoxicity at 70.5 h was -27.5%.

For `Cc1nccn1CCCC(=O)N1CCN(c2cccnc2)CC1`, the cytotoxicity at 70.5 h came out at 4.06%.

`NC(=O)CCn1cc(CNCCCc2ccccc2O)c2ccccc21`: the cytotoxicity at 70.5 h was found to be 8.33%.

With `CCc1c(C)nn(C)c1NC(=O)N1CCCOC(Cn2cccn2)C1` (stereo not drawn), the cytotoxicity at 70.5 h was -4.64%.

`CC(C)Cc1nc(CCn2ccc(=O)[nH]c2=O)n(-c2ccccn2)n1`: the cytotoxicity at 70.5 h stood at 11.3%.

Consider `Cn1nccc1CCNC(=O)[C@H]1CNC[C@H](C(=O)N2CCCC2)C1`, for which the cytotoxicity at 70.5 h turned out to be 0.341%.

As to `Cc1ncc(CC(=O)N2CCC(N3C[C@@H](C)O[C@@H](C)C3)CC2)c(=O)[nH]1`, the cytotoxicity at 70.5 h is 9.33%.

For the compound `O=C(NC1CC1)c1cn(C2CCN(c3cc(C4CC4)ncn3)CC2)nn1`, the cytotoxicity at 70.5 h is 30%.

Turning to `COCc1noc(Cn2ccc3ncccc3c2=O)n1`, the cytotoxicity at 70.5 h is -7.25%.

`COc1ccc2cc(C3CN(C(=O)N(C)C)CCO3)ccc2c1` (stereo not drawn): the cytotoxicity at 70.5 h turned out to be 26.1%.

As for `Cc1cc(-n2cccn2)ccc1CN1C[C@@H](CN(C)C)[C@@H](CO)C1`, the cytotoxicity at 70.5 h was -8.41%.

As for `Cc1ccnc(NCCCN2CCc3ccccc32)n1`, the cytotoxicity at 70.5 h is -2.9%.

For the compound `CSCCCN1CCCC(Cn2ccnc2)C1` (stereo not drawn), the cytotoxicity at 70.5 h is -11.5%.
